What was measured:
mice = assay: PYY mouth spray, food intake after 24 hours fasting; assay type: in vivo
Method: Synthetic PYY was purchased from Bachem, Inc USA (Cat #H-6042) and diluted in sterile H2O. Sterile un-used perfume sample vials (Saphora) were utilized to administer PYY in the form of a mouth spray. It was estimated that the volume of one spray approximates to about […].
Mice were conditioned three times to 24 hours fasting starting at the beginning of the dark cycle and ending at the end of the light cycle. At the end of the fasting cycle and as a part of conditioned routine, a sterile water spray had been administered into the mouth. All the experiments were done during the first hour of the dark cycle after fasting. Once the dark cycle started, mice were sprayed once with either PYY or sterile H2O in a total volume of […] per spray. After the treatment, mice were returned to their cages and ten minutes later pre-weighted chow was provided. One hour later, the amount of consumed chow had been recorded by measuring the leftover amount. When the experiments were repeated, mice were fasted only once a week with the control and experimental groups rotated.

male Balb/c mice = assay: Territorial Resident/Intruder aggression test; assay type: in vivo
Method: Data presented in this report indicate that long-term expression of Peptide YY3-36, an agonist of NPY Y receptors with higher affinity for the Y2 receptor, abolish aggressive behavior in mice. To test these observations, we used the territorial Resident/Intruder (R/I) aggressive paradigm (6), a standard test for evaluating rodent aggressive behavior. The test was applied on three different occasions using different intruders. Tests were recorded and analyzed in a blind manner using the Observer v5.0 software (Noldus Information Technology) (see videos, Supplementary data) (7).
Behavioral studies: Aggression territorial-Intruder test were performed on week 24 after the treatment (6). Briefly, PYY-, or GFP-treated resident mice were individually housed for at least two weeks prior to testing. Bedding from cages was not changed during the testing period to avoid unnecessary stress. On the day of the experiment, a smaller size intruder was placed into the resident cage for 10 minutes and the resident's behavior was recorded with a video camera. Each experiment was repeated 3 times on three different occasions and with different intruders. The videos from the experiments were analyzed for non-aggressive and aggressive behavior by an expert in a blind manner using The Observer v5.0 software (Noldus Information Technology) (7).
Data was reported in mean±SEM.

Substance	dose response of PYY mouth spray on FI after one hour (mice; mouth spray)	less food consumed in one hour compared to H2O spray control (mice; one mouth spray, 5 ug per 100 g of body weight, after 24 h fasting, average, P=0.03) [%]	chase duration (male Balb/c mice; vs control mice)	chase events (male Balb/c mice; vs control mice)	attack duration (male Balb/c mice; vs controls)	attack latency (male Balb/c mice; vs controls)	normal social interactions manifested by sniffing (male Balb/c mice; vs controls)	threat duration (male Balb/c mice; vs controls)	threat events (male Balb/c mice; vs controls)	attack events (male Balb/c mice; week 24 after treatment, n=5, mean±SEM) [events per 10 min]	decrease in the number of attack events compared to controls (male Balb/c mice; week 24 after treatment, n=5, p<0.05) [fold]
PYY: Synthetic PYY purchased from Bachem (Cat #H-6042), diluted in sterile H2O, given as a mouth spray [Peptide YY]	significant PYY dose response effect	15	–	–	–	–	–	–	–	–	–
PYY3-36: endogenous NPY Y2 receptor agonist; salivary level raised long-term by rAAV-PYY in the treated mice	–	–	decrease	decrease	significant decrease	significant increase	did not change	significant decrease	significant decrease	0.07±0.067	44

Source: patent US12109251B2, “Satiation peptide administration” (University of Florida Research Foundation, Incorporated, priority 2009, dated 2024)
